Where a name gives a salt, the structure may show the parent alone.
Legend:
[1] = Divalent zinc binding via 1H NMR spectroscopy; conditions: 0, 0.5, 1.0 equivalents ZnCl2; DMSO
Description: Given this Zn(II)-dependence, the ability of 3 to bind zinc directly was determined to ascertain if the mechanism was potentially occurring via a Zn(II)-binding mechanism. To answer this question, an ^1H NMR binding experiment was performed in which the chemical shifts of 3 were measured in the presence of 0 equivalents, 0.5 equivalents, and 1.0 equivalents ZnCl2. […] As a control, the same experiment was performed with FeSO4.
Procedure to Determine the Divalent Zinc Binding Effects of Test Compounds via ^1H NMR Spectroscopy:
^1H NMR Spectra were obtained of the test compounds in DMSO on a 400 MHz NMR in the absence and in the presence of one equivalent of ZnCl2. 2-(2-amino-1H-benzo[d]imidazol-5-ylcarbamoyl)-3,4,5,6-tetrachlorobenzoic acid hydrochloride was tested at a 228 mM. 2,3,4,5-tetrachloro-6-(phenylcarbamoyl)benzoic acid was tested at 275 mM. 1H-benzo[d]imidazol-2-amine hydrochloride was tested at 649 mM.

S. epidermidis = assay: Dispersion of preformed S. epidermidis biofilm; assay type: cell-based, Staphylococcus epidermidis; conditions: concentration that disperses 50% of a pre-formed biofilm
Description: (§1) A dose-response study was then initiated in which both the IC50 and EC50 value of each compound towards the bacterial strains were determined (Table 1). Here, IC50 is defined as the concentration of compound that inhibits 50% biofilm development while EC50 is defined as the concentration of compound that disperses 50% of a pre-formed biofilm.
(§2) Procedure to Determine the Dispersal Effect of Test Compounds on E. faecium, MRSA and S. epidermidis Preformed Biofilms:
(§3) Dispersion assays were performed by taking an overnight culture of bacterial strain and subculturing it at an OD600 of 0.01 into the necessary media (brain heart infusion for E. faecium, tryptic soy broth with a 0.5% glucose supplement (TSBG) for MRSA and tryptic soy broth with a 0.5% glucose supplement and a 3.0% NaCl supplement (TGN) for S. epidermidis. The resulting bacterial suspension was aliquoted (100 μL) into the wells of a 96-well PVC microtiter plate. Plates were then wrapped in GLAD Press n′ Seal® followed by an incubation under stationary conditions at ambient temperature to establish the biofilms. After 24 h, the media was discarded from the wells and the plates were washed thoroughly with water. Stock solutions of predetermined concentrations of the test compound were then made in the necessary media. These stock solutions were aliquoted (100 μL) into the wells of the 96-well PVC microtiter plate with the established biofilms. Media alone was added to a subset of the wells to serve as a control. Sample Plates were then incubated for 24 h at 37° C. After incubation, the media was discarded from the wells and the plates were washed thoroughly with water. Plates were then stained with 100 μL of 0.1% solution of crystal violet (CV) and then incubated at ambient temperature for 30 min. Plates were washed with water again and the remaining stain was solubilized with 200 μL of 95% ethanol. A sample of 125 μL of solubilized CV stain from each well was transferred to the corresponding wells of a polystyrene microtiter dish. Biofilm dispersion was quantitated by measuring the OD540 of each well in which a negative control lane wherein no biofilm was formed served as a background and was subtracted out.

MRSA = assay: Dispersion of preformed MRSA biofilm; assay type: cell-based, Staphylococcus aureus; conditions: concentration that disperses 50% of a pre-formed biofilm
Description: as §1, §2, §3

Nc1nc2ccc(NC(=O)c3c(Cl)c(Cl)c(Cl)c(Cl)c3C(=O)O)cc2[nH]1 [Compound 3, 2-(2-amino-1H-benzo[d]imidazol-6-ylcarbamoyl)-3,4,5,6-tetrachlorobenzoic acid hydrochloride]
zinc binding, change of 1H NMR signals [1]: directly binding ZnCl2
EC50 (S. epidermidis; Staphylococcus epidermidis): 7.25 µM
EC50 (S. epidermidis; hydrochloride): 7.3 µM
EC50 (MRSA; Staphylococcus aureus): 2.92 µM
EC50 (MRSA; hydrochloride): 2.9 µM

From patent US9221765B2, “Inhibition and dispersion of bacterial biofilms with benzimidazole derivatives” (North Carolina State University, priority 2009, dated 2015)
